# In patent publication US10064858B2, “Methods and compositions for treating bacterial infections with iron chelators” (THE UNITED STATES OF AMERICA, AS REPRESENTED BY THE …, priority 2011, dated 2018):
# Like-named read-outs stand apart in the source and are kept apart here.
# How the values were obtained:
# Type in all cases: cell-based
# [1] = system: A. baumannii AB 19606, AB 17978; assay: Checkerboard assay, chelator with antibiotic (FIC); conditions: for checkerboard interaction: AB19606
# Source text: Drug interactions were initially evaluated with the “checkerboard” microdilution design, which provided a matrix of all drug combinations assayed in terms of fractions of the previously determined MIC. The checkerboard microdilution design is described in R. J. Tallarida, “Drug Synergism: Its Detection and Applications,” Journal of Pharmacology and Experimental Therapeutics, 865-872 (2001); and in R. L. White, et al., (1996), supra. FIGS. 39A and 39B show the wellplates having different concentrations of iron chelator and antibiotic, as labeled along the x-axis and y-axis. […] The checkerboard assay was used to asses other combinations of iron chelators and antibiotics. The fractional inhibitory concentration index (FIC), which was calculated as follows: FIC=(MIC A in combination/MIC A)+(MIC B in combination/MIC B). […] Blank spaces indicate concentrations not tested. […] Against the species PA PAO1 and PA 27853, all the antibiotics except for Ami.
# [2] = system: multi-drug resistant bacterial species; assay: Time kill method, synergy with rifampin (summary)
# Experimental: (§1) Reductions in colony forming units (CFU)/mL were determined over time (time-kill assay) after exposure to VK28 and deferiprone (DFP), the two iron chelators that performed best in MIC assays when compared to controls. To better represent the iron content found in the human body, MIC and time-kill assays were also determined in minimal media and tissue culture media. Time-Kill assays were performed as previously described in G. P. Neupane et al., “In vitro time-kill activities of ciprofloxacin alone and in combination with the iron chelator deferasirox against Vibrio vulnificus,” European Journal of Clinical Microbiology and Infectious Diseases, 407-410 (2010); and R. L. White, et al., “Comparison of Three Different In Vitro Methods of Detecting synergy: Time-Kill, Checkerboard, and E test,” Journal of Antimicrobial Agents and Chemotherapy, 1914-1918 (1996). Initial inocula, for example 1×10^6 CFU/mL or 1×10^7 CFU/mL were challenged with iron chelator with and/or without an antibiotic. Cells were allowed to grow in CAMHB at 37° C. for 24 hours. Time-kill results were analyzed by determining the change in log 10 numbers of CFU/ml at 0, 6, and 24 h, compared to counts at 0 h. Antimicrobials were considered bactericidal at the lowest concentration that reduced the size of the original inoculum by >3 log 10 CFU/ml (99.9%) over each of the time periods and were considered bacteriostatic if the inoculum's size was reduced by 0 to <3 log 10 CFU/ml.
# [3] = system: AB5075 a MDR-clinical isolate of A. baumannii; assay: Time-kill assay in CAMHB; conditions: for time-kill course of CFU/mL: 24 hours (FIG. 8A); for effect on CFU/ml (time-kill, FIG. 13): 2 and 6 hours
# Experimental: as §1
# (§2) In this example, time-kill assays were performed as described in Example 9 using Apo6619 as the iron chelator against AB5075 (MRSN959), the MDR-clinical isolate of A. baumannii. The initial inocula was 1×10^6 CFU/mL, and were challenged with 0.5×MIC, 1×MIC and 2×MIC of Apo6619. Time-kill results were analyzed by determining the change in log 10 numbers of CFU/mL at 0, 2 and 4 hours.
# as §2, with “VK28 or DFP” for “Apo6619”, “AB5075,” for “AB5075 (MRSN959),”, “either VK28 or DFP.” for “Apo6619.”, “at” for “at 0,”, “6” for “4”
# [4] = system: clinical isolates of A. baumannii; assay: MIC for clinical isolates in RPMI (low iron) media (Table 4); design: key to MIC of Iron Chelators: NG = no growth in table 4; conditions: for MIC: Acinetobacter baumannii
# Experimental: […] […] Tests were performed in triplicate. MIC of iron chelators were determined for noscomial ESKAPE pathogens.
# For a number of strains, the iron chelators produced no growth of bacteria (NG).
# [5] = system: multi-drug resistant bacterial species; assay: Checkerboard, synergy with rifampin (summary)
# Source text: Drug interactions were initially evaluated with the “checkerboard” microdilution design, which provided a matrix of all drug combinations assayed in terms of fractions of the previously determined MIC. The checkerboard microdilution design is described in R. J. Tallarida, “Drug Synergism: Its Detection and Applications,” Journal of Pharmacology and Experimental Therapeutics, 865-872 (2001); and in R. L. White, et al., (1996), supra. FIGS. 39A and 39B show the wellplates having different concentrations of iron chelator and antibiotic, as labeled along the x-axis and y-axis.
# The checkerboard assay was used to asses other combinations of iron chelators and antibiotics. The fractional inhibitory concentration index (FIC), which was calculated as follows: FIC=(MIC A in combination/MIC A)+(MIC B in combination/MIC B). Interaction was defined as synergistic if the FIC was <1.0, preferably <0.5, no interaction if the FIC was >1.0 and <4.0, and antagonistic if the FIC was >4.0.
# The assay was run against the multi-drug resistant bacterial species AB 19606, AB 17978, KP ndm, PA PAO1, PA 27853, EC 35718, and EC 43888. Blank spaces indicate concentrations not tested. […] Against the species PA PAO1 and PA 27853, all the antibiotics except for Ami.
# [6] = AB 17978, in combination with Amikacin
# [7] = AB 17978, in combination with Cefotaxine
# [8] = AB 17978, in combination with Colisitin (Colistin)
# [9] = AB 17978, in combination with Doxycycline
# [10] = AB 17978, in combination with Rifampin
# [11] = AB 19606, in combination with Amikacin
# [12] = AB 19606, in combination with Cefotaxine
# [13] = AB 19606, in combination with Colisitin (Colistin)
# [14] = AB 19606, in combination with Doxycycline
# [15] = AB 19606, in combination with Rifampin
# [16] = AB3638, read-out: MIC of Iron Chelators
# [17] = AB3806, read-out: MIC of Iron Chelators
# [18] = AB4025, read-out: MIC of Iron Chelators
# [19] = AB4026, read-out: MIC of Iron Chelators
# [20] = AB4027, read-out: MIC of Iron Chelators
# [21] = AB4052, read-out: MIC of Iron Chelators
# [22] = AB4269, read-out: MIC of Iron Chelators
# [23] = AB4448, read-out: MIC of Iron Chelators
# [24] = AB4456, read-out: MIC of Iron Chelators
# [25] = AB4490, read-out: MIC of Iron Chelators
# [26] = AB4498, read-out: MIC of Iron Chelators
# [27] = AB4795, read-out: MIC of Iron Chelators
# [28] = AB4857, read-out: MIC of Iron Chelators
# [29] = AB4878, read-out: MIC of Iron Chelators
# [30] = AB4932, read-out: MIC of Iron Chelators
# [31] = AB4957, read-out: MIC of Iron Chelators
# [32] = AB4991, read-out: MIC of Iron Chelators
# [33] = AB5001, read-out: MIC of Iron Chelators
# [34] = AB5075, read-out: MIC of Iron Chelators
# [35] = AB5197, read-out: MIC of Iron Chelators
# [36] = AB5256, read-out: MIC of Iron Chelators
# [37] = AB5674, read-out: MIC of Iron Chelators
# [38] = AB5711, read-out: MIC of Iron Chelators
smiles,measurement,setting,value
"Cc1c(O)c(=O)ccn1C [ApoL1, 3-hydroxy-1,2-dimethyl-4(1H)-pyridone]",FIC,[1]; [6],1.25
same,FIC,[1]; [7],1.25
same,FIC,[1]; [8],1.25
same,FIC,[1]; [9],1.25
same,FIC,[1]; [10],0.75
same,FIC,[1]; [11],1.25
same,FIC,[1]; [12],1.25
same,FIC,[1]; [13],1.25
same,FIC,[1]; [14],2.25
same,FIC,[1]; [15],0.75
same,checkerboard interaction,[1]; with doxycycline (FIG. 39B),indifference
same,checkerboard interaction,[1]; with rifampin (FIG. 39A),moderate synergy
same,"synergy with rifampin, time kill method",[2],strong synergy
same,time-kill course of CFU/mL,"[3]; 0.5×MIC, CAMHB",reduced level of CFU/ml at 2 and 6 hours but did increase in CFU at 24 hours to levels as seen in the untreated sample
same,"effect on CFU/ml (time-kill, FIG. 13)",[3]; 1×MIC,slight inhibitory effect
same,time-kill course of CFU/mL,"[3]; 1×MIC, CAMHB",reduced level of CFU/ml at 2 and 6 hours but did increase in CFU at 24 hours to levels as seen in the untreated sample
same,"effect on CFU/ml (time-kill, FIG. 13)",[3]; 2×MIC,stronger inhibitory effect
same,time-kill course of CFU/mL,"[3]; 2×MIC, CAMHB",did not have a substantial increase in CFU/ml over the 24 hour period
same,MIC of Iron Chelators,[4]; AB967,NG
same,MIC of Iron Chelators,[4]; AB2828,NG
same,MIC of Iron Chelators,[4]; AB3340,NG
same,MIC of Iron Chelators,[4]; AB3560,NG
same,MIC of Iron Chelators,[4]; AB3785,NG
same,MIC of Iron Chelators,[4]; AB3917,NG
same,MIC of Iron Chelators,[4]; AB3927,NG
same,MIC,[4]; [16],125 µg/mL
same,MIC,[4]; [17],125 µg/mL
same,MIC,[4]; [18],125 µg/mL
same,MIC,[4]; [19],125 µg/mL
same,MIC,[4]; [20],125 µg/mL
same,MIC,[4]; [21],125 µg/mL
same,MIC,[4]; [22],125 µg/mL
same,MIC,[4]; [23],125 µg/mL
same,MIC,[4]; [24],125 µg/mL
same,MIC,[4]; [25],125 µg/mL
same,MIC,[4]; [26],125 µg/mL
same,MIC,[4]; [27],125 µg/mL
same,MIC,[4]; [28],125 µg/mL
same,MIC,[4]; [29],250 µg/mL
same,MIC,[4]; [30],64 µg/mL
same,MIC,[4]; [31],125 µg/mL
same,MIC,[4]; [32],125 µg/mL
same,MIC,[4]; [33],125 µg/mL
same,MIC,[4]; [34],125 µg/mL
same,MIC,[4]; [35],125 µg/mL
same,MIC,[4]; [36],125 µg/mL
same,MIC,[4]; [37],125 µg/mL
same,MIC,[4]; [38],64 µg/mL
same,"synergy with rifampin, checkerboard",[5],moderate degrees of synergy
"OCCN1CCN(Cc2ccc(O)c3ncccc23)CC1 [VK28, 5-(4-(2-hydroxyethyl)piperazin-1-ylmethyl)-8-hydroxyquinoline]",FIC,[1]; [6],1.25
same,FIC,[1]; [7],0.75
same,FIC,[1]; [8],0.75
same,FIC,[1]; [9],1.25
same,FIC,[1]; [10],0.75
same,FIC,[1]; [11],1.25
same,FIC,[1]; [12],1.25
same,FIC,[1]; [13],0.75
same,FIC,[1]; [14],2.25
same,FIC,[1]; [15],1.25
same,"synergy with rifampin, time kill method",[2],strong synergy
same,"effect on CFU/ml (time-kill, FIG. 13)",[3]; 0.5 MIC,inhibitory effect on the CFU/ml
same,CFU/mL at 24 hours,"[3]; 0.5 MIC, CAMHB",about 1×10^9 CFU/mL
same,time-kill course of CFU/mL,"[3]; 0.5×MIC, CAMHB","initial decrease in CFU/mL at 2 and 6 hours, but rebounded"
same,"effect on CFU/ml (time-kill, FIG. 13)",[3]; 1×MIC,inhibitory effect on the CFU/ml
same,time-kill course of CFU/mL,"[3]; 1×MIC, CAMHB",did not increase in CFU over the 24 hour period
same,"effect on CFU/ml (time-kill, FIG. 13)",[3]; 2×MIC,inhibitory effect on the CFU/ml
same,time-kill course of CFU/mL,"[3]; 2×MIC, CAMHB",decrease in CFU/mL after 2 hours that was sustained through the 24 hour period
same,MIC of Iron Chelators,[4]; AB967,NG
same,MIC of Iron Chelators,[4]; AB2828,NG
same,MIC of Iron Chelators,[4]; AB3340,NG
same,MIC of Iron Chelators,[4]; AB3560,NG
same,MIC of Iron Chelators,[4]; AB3927,NG
same,MIC,[4]; [16],8 µg/mL
same,MIC,"[4]; AB3785, read-out: MIC of Iron Chelators",8 µg/mL
same,MIC,[4]; [17],8 µg/mL
same,MIC,"[4]; AB3917, read-out: MIC of Iron Chelators",4 µg/mL
same,MIC,[4]; [18],8 µg/mL
same,MIC,[4]; [19],8 µg/mL
same,MIC,[4]; [20],8 µg/mL
same,MIC,[4]; [21],8 µg/mL
same,MIC,[4]; [22],8 µg/mL
same,MIC,[4]; [23],8 µg/mL
same,MIC,[4]; [24],8 µg/mL
same,MIC,[4]; [25],8 µg/mL
same,MIC,[4]; [26],8 µg/mL
same,MIC,[4]; [27],4 µg/mL
same,MIC,[4]; [28],8 µg/mL
same,MIC,[4]; [29],8 µg/mL
same,MIC,[4]; [30],8 µg/mL
same,MIC,[4]; [31],8 µg/mL
same,MIC,[4]; [32],8 µg/mL
same,MIC,[4]; [33],8 µg/mL
same,MIC,[4]; [34],8 µg/mL
same,MIC,[4]; [35],4 µg/mL
same,MIC,[4]; [36],8 µg/mL
same,MIC,[4]; [37],8 µg/mL
same,MIC,[4]; [38],8 µg/mL
same,"synergy with rifampin, checkerboard",[5],moderate degrees of synergy
